Data published in ChEMBL document CHEMBL3621164, “Discovery of Triazole CYP11B2 Inhibitors with in Vivo Activity in Rhesus Monkeys” (ACS Med Chem Lett, 2015).

Key:
[1] = biological target: T1, Cytochrome P450 11B2, mitochondrial (Rattus norvegicus, UniProt P30099); assay: Inhibition of rat CYP11B2 expressed in V79 cells assessed as aldosterone level after 3 hrs by HTRF assay in presence of 500 nM 11-deoxycorticosterone; format: cell-based; settings: v79, 3 h
T1 sequence (P30099 whole entry): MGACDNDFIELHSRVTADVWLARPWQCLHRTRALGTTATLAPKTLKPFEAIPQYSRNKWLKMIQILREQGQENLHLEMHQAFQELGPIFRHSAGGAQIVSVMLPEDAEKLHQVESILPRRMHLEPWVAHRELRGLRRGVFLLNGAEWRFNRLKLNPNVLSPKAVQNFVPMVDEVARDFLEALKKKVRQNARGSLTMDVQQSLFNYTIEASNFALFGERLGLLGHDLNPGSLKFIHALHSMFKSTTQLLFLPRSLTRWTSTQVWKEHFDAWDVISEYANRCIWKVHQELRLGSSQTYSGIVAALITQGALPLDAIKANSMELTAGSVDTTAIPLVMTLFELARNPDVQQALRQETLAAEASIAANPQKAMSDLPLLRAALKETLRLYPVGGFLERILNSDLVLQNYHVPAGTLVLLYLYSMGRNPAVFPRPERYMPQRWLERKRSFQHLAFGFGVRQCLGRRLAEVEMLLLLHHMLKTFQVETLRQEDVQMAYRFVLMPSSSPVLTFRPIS

[2] = Intrinsic clearance in Sprague-Dawley rat liver microsomes by LC/MS method; format: ADME; settings: read-out: CLH
[3] = Inhibition of rhesus monkey CYP11B1; design: species or system Macaca mulatta
[4] = Plasma clearance in Sprague-Dawley rat at 2 mg/kg, po administered through gavage by LC/MS/MS method; format: ADME, organism-based
[5] = Inhibition of rhesus monkey CYP11B2 expressed in V79 cells assessed as aldosterone level after 3 hrs by HTRF assay in presence of 125 nM 11-deoxycorticosterone; format: cell-based; settings: Macaca mulatta, V79, 3 h
[6] = biological target: T2, Steroid 17-alpha-hydroxylase/17,20 lyase (Homo sapiens, UniProt P05093); assay: Inhibition of human CYP17 expressed in COS7 cells assessed as DHEA level after 3 hrs by EIA assay in presence of 360 nM 17-hydroxypregnenolone; format: cell-based, COS-7
T2 sequence (P05093 whole entry): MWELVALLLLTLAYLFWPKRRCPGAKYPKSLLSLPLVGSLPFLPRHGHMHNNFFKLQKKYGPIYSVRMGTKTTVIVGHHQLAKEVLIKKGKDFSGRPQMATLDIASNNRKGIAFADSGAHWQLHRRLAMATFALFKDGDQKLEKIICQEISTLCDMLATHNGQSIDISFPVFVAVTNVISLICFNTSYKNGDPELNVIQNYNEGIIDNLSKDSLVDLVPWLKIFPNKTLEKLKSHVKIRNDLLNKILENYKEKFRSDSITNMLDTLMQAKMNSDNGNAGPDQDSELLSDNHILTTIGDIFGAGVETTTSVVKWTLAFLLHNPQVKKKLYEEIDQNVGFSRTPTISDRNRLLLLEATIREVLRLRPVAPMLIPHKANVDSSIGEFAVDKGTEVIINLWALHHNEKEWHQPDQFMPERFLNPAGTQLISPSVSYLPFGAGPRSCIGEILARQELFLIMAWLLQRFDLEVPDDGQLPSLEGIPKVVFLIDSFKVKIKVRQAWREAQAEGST

SMILES: Cc1nnc2n1-c1ccc(-c3cncc([C@](C)(O)C(F)(F)F)c3)cc1CC2
- inhibition (INH) [1]: Active
- CLint scaled [2]: < 20 mL/min/kg
- IC50 [3]: 3.48 µM
- CL/F [4]: 21 mL/min/kg
- IC50 [5]: 0.012 µM
- IC50 [6]: > 10 µM
